Measurements from patent publication US9289464B2, “Method for diagnosing and treating NIS-expressing carcinomas and metastases” (priority 2002, dated 2016).

Assays:
[1] = system: non-small-cell lung cancer cell line H460; conditions: cited from earlier work
[2] = system: breast cancer cell line MCF-7; experiment: Iodide uptake assay (Na125I) in MCF-7 cells; format: cell-based, human
Method: (§1) All the cell lines used herein were purchased from the Deutschen Sammlung von Mikroorganismen und Zelikulturen (DSMZ; Brunswick, Germany, DSMZ No.: MCF-7 (ACC 115)). MCF-7 cells were cultured in RPMI 1640 medium with 10% FCS (fetal calf serum) and addition of 1× nonessential amino acids, 0.01 mg/ml bovine insulin and 5% penicillin/streptomycin. The HeLa cells were cultured in RPMI 1640 medium. All the reagents for the cell culture were, unless indicated otherwise, purchased from Invitrogen, Karlsruhe, Germany. Cells were cultured in plates with 24 wells (24 Well Plates) for 24 h. The cells were then washed and subsequently the substances to be tested (ciglitazone, trans-retinoic acid with or without KClO4) were added in fresh medium. […] After the incubation, the cells were washed twice with ice-cold RPMI 1640 and lysed in 2% SDS-PAGE sample buffer (0.0625 M Tris-HCl, pH 6.8) with 1 U/μl Benzonase (Merck KgaA, Darmstadt, Germany). The ^125I uptake was measured in a gamma counter. An aliquot of each sample was employed to determine the protein concentration using the DC protein determination kit from Bio-Rad (Munich, Germany) in order thus to achieve standardization with different numbers of cells.

[3] = system: prostate cancer cell line LNCaP; conditions: cited from earlier work
NIS mRNA = NIS mRNA concentration in treated cells; format: cell-based; conditions: cells treated with tRA
[4] = system: cervical carcinoma cell line HeLa; experiment: Iodide uptake assay (Na125I) in HeLa cells; format: cell-based; conditions: 1 μM tRA with or without 5 μM CIG, 48 h
Method: as §1

HEK-293 cells = experiment: Iodide uptake assay in HEK-293 cells (analogous experiment); format: cell-based; conditions: results not shown
Method: Cells were cultured in plates with 24 wells (24 Well Plates) for 24 h. The cells were then washed and subsequently the substances to be tested (ciglitazone, trans-retinoic acid with or without KClO4) were added in fresh medium. […] After the incubation, the cells were washed twice with ice-cold RPMI 1640 and lysed in 2% SDS-PAGE sample buffer (0.0625 M Tris-HCl, pH 6.8) with 1 U/μl Benzonase (Merck KgaA, Darmstadt, Germany). The ^125I uptake was measured in a gamma counter. An aliquot of each sample was employed to determine the protein concentration using the DC protein determination kit from Bio-Rad (Munich, Germany) in order thus to achieve standardization with different numbers of cells.

[5] = system: choriocarcinoma cell line JEG-3; conditions: cited from earlier work
[6] = system: non-small-cell lung cancer cell line A549; conditions: cited from earlier work
NIS = molecular target: T1, NIS (Homo sapiens, UniProt Q92911); experiment: Blocking experiments: iodide uptake in presence of KClO4; format: cell-based; conditions: 30 mM KClO4; MCF-7 treated with tRA with or without CIG
T1 construct: NIS gene expression is increased synergistically by treatment of CIG in combination with retinoic acid in the breast cancer cell line MCF-7; endogenous in cells; host or cells: MCF-7 (DSMZ ACC 115)
T1 sequence (Q92911 1-643): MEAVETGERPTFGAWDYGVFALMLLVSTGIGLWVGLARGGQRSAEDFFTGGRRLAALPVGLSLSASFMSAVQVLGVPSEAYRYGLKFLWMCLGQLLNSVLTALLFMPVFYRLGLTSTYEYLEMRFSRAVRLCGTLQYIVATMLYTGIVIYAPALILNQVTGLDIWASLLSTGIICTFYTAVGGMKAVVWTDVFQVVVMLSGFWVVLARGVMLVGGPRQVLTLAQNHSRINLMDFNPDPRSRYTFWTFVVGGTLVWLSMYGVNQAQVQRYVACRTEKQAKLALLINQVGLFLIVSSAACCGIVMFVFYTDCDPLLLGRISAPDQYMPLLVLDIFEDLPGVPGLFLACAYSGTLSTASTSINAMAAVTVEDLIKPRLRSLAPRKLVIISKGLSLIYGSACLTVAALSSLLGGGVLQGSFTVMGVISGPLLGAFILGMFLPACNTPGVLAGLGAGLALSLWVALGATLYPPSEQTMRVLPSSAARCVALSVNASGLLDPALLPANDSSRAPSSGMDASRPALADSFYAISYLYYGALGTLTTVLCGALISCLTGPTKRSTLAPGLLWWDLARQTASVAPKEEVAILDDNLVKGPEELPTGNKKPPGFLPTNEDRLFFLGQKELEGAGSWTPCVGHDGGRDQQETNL
Method: Cells were cultured in plates with 24 wells (24 Well Plates) for 24 h. The cells were then washed and subsequently the substances to be tested (ciglitazone, trans-retinoic acid with or without KClO4) were added in fresh medium. For the iodide uptake, the cells were first washed twice in prewarmed RPMI 1640 medium without FCS, and then incubated in 1 ml of RPMI 1640 without FCS which comprised 0.1 μCi/ml Na^125I (specific activity: 10 mCi/mmol, Amersham Biosciences, Freiburg, Germany) and 10 μM NaI/well for 1 h.
After the incubation, the cells were washed twice with ice-cold RPMI 1640 and lysed in 2% SDS-PAGE sample buffer (0.0625 M Tris-HCl, pH 6.8) with 1 U/μl Benzonase (Merck KgaA, Darmstadt, Germany). The ^125I uptake was measured in a gamma counter. An aliquot of each sample was employed to determine the protein concentration using the DC protein determination kit from Bio-Rad (Munich, Germany) in order thus to achieve standardization with different numbers of cells.
In order to test the specificity of NIS-mediated iodide uptake, the experiments described in the previous exemplary embodiment were also carried out in the presence of 30 mM KClO4, the strongest specific NIS inhibitor.

In the case of CC1=C(/C=C/C(C)=C/C=C/C(C)=C/C(=O)O)C(C)(C)CCC1 [tRA, trans-retinoic acid], the “induction of iodide uptake” value [1] is given as “does not induce iodide uptake”, the “time at which maximum iodide uptake was reached” value ([2]; 1 μM tRA) is given as 48 h and the “induction of iodide uptake” value [3] is given as “does not induce iodide uptake”. The “concentration of NIS mRNA” value (NIS mRNA) was “distinctly increased”, the “induction of iodide uptake (in words)” value [4] was “no induction of iodide uptake” and the “induction of iodide uptake (in words)” value (HEK-293 cells) was “same results”. The “induction of iodide uptake” value [5] was “does not induce iodide uptake” and the “induction of iodide uptake” value [6] was “does not induce iodide uptake”.
With [K+].[O-][Cl+3]([O-])([O-])[O-] [KClO4] the “effect on iodide uptake of breast cancer cells (NIS blocking)” value (NIS) was “inhibited”.
In the case of CC1(COc2ccc(CC3SC(=O)NC3=O)cc2)CCCCC1 (stereo not shown) [CIG, ciglitazone], the “effect on iodide uptake (in words)” value ([2]; 1 μM tRA and/or 5 μM CIG) is reported as “no effect”.
